From patent publication US8998396B2, “Treatment liquid for liquid jetting device, and cartridge containing the same” (Ricoh Company, Ltd., priority 2009, dated 2015)

Test: Surfactant solubility in the main solvent, judged visually
Type: physicochemical
Settings: main solvent: water, glycerin and 1,3-butylene glycol
Source text: The surfactant was solved into the main solvent and the solubility thereof was judged visually.
A: Solved completely (transparent and colorless)

Solubility in the main solvent (in words)	SMILES
solves in the main solvent	CCCCCCCCN1CCCC1=O [LP-100, N-Octyl-2-Pyrrolidone]
cannot solve in the main solvent	CCCCCCCCCCCCN1CCCC1=O [LP-300, N-Dodecyl-2-Pyrrolidone]
